Results: patent US20260070945A1, “MACROCYCLIC IMMUNOMODULATORS” (Bristol-Myers Squibb Company, priority 2022, published 2026)
pIC50: −log10 of the molar value. *1 amine or outer side, *2 acyl side, *3 side chain or, on linkers, in order; H or OH if unused. Where a SMILES comes first, the peptide text is derived from it. Bridges are numbered along the chain shown (N, C = ends). [ ]: non-standard residue; d: D form. The star is where a group is joined. ξ: configuration not given here. Phe(3-CF3) = N[C@@H](Cc1cccc(C(F)(F)F)c1)C(=O)O; Ala(morpholin-4-yl) = N[C@@H](CN1CCOCC1)C(=O)O; Phe(4-CONH2) = NC(=O)c1ccc(C[C@H](N)C(=O)O)cc1; Phe(4-COOH) = N[C@@H](Cc1ccc(C(=O)O)cc1)C(=O)O; Bip = N[C@@H](Cc1ccc(-c2ccccc2)cc1)C(=O)O; Phe(3-Me) = Cc1cccc(C[C@H](N)C(=O)O)c1; γGlu = O=C(O)[C@H](CCC(=O)[*:2])N[*:1]; βAsp = O=C(O)[C@H](CC(=O)[*:2])N[*:1]; NH(CH2)12COOH = O=C(O)CCCCCCCCCCCCN*; Val(3-OH) = CC(C)(O)[C@H](N)C(=O)O; 4Pal = N[C@@H](Cc1ccncc1)C(=O)O; Cha = N[C@@H](CC1CCCCC1)C(=O)O; Cit = NC(=O)NCCC[C@H](N)C(=O)O; Ile(3ξ) = CCC(C)[C@H](N)C(=O)O; Thr(3ξ) = CC(O)[C@H](N)C(=O)O; 12Ado = NCCCCCCCCCCCC(=O)O; dOrn = NCCC[C@@H](N)C(=O)O; Carboxymethyl = O=C(O)C*; NMeA = CN[C@@H](C)C(=O)O; dDap = NC[C@@H](N)C(=O)O; Aun = NCCCCCCCCCCC(=O)O; Dab = NCC[C@H](N)C(=O)O; AEEA = NCCOCCOCC(=O)O; Sar = CNCC(=O)O

molecular target: T1, PD-1/PD-L1 interaction (PE-labeled human PD-L1-Ig binding to Jurkat cell line over-expressing human PD-1) (Homo sapiens, UniProt Q15116); assay: Jurkat-PD-1 Cell Binding High-Content Screening Assay (CBA); conditions: Jurkat-hPD-1 cells, PE-labeled PD-L1-Ig 20 nM final; read-out: Jurkat HPD1 PDL1 IC50
T1 construct: expressed in transfected cells; host or cells: Jurkat
T1 sequence (Q15116 25-288): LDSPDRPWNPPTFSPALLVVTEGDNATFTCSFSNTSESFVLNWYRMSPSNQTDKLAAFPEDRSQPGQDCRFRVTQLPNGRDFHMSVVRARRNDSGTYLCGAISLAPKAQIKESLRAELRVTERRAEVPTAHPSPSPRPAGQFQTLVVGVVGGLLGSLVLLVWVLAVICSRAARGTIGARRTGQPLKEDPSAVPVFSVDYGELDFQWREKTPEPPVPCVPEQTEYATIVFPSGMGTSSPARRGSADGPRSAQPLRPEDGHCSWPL
Outline: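 Compound is added first to the PD-1-expressing Jurkat cells and held 2 h at 37 °C in serum-containing DMEM. The fluorescent PD-L1 fusion follows at 20 nM final for 1 h. Fixed, Hoechst-stained cells are then imaged for bound label.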

Row | pIC50 | Compound
1 | 6.49 | CC(=O)NCCCC[C@@H]1NC(=O)[C@H](C(C)C)NC(=O)[C@H](CC2CCCCC2)NC(=O)[C@H](CCN)NC(=O)[C@@H](CC(C)C)NC(=O)[C@H](C)N(C)C(=O)[C@H](Cc2ccc(O)cc2)NC(=O)[C@H](Cc2ccc(-c3ccccc3)cc2)NC(=O)[C@H](C(C)C)NC(=O)[C@H](Cc2cccc(C)c2)NC(=O)[C@H](CC(=O)O)NC(=O)[C@H](Cc2ccc(OCC(=O)O)cc2)NC(=O)[C@H](CCCNC(=N)N)NC(=O)CSC[C@@H](C(=O)N(C)CC(=O)NCCCCCCCCCCC(=O)O)NC1=O [Example 2273] ({CH2CO}-RY(Carboxymethyl)D[Phe(3-Me)]V[Bip]Y[NMeA][dL][Dab][Cha]VK(Ac)C[Sar][Aun]-OH; thioether N-14)
2 | 7.54 | CC(C)C[C@@H]1NC(=O)[C@H](Cc2c[nH]c3ccccc23)NC(=O)[C@H](CC(=O)O)NC(=O)[C@H](Cc2ccc(OCC(=O)O)cc2)NC(=O)[C@H](Cc2ccccc2)NC(=O)CSC[C@@H](C(=O)N[C@H](CN)C(=O)NCCOCCOCC(=O)NCCCCCCCCCCC(=O)O)NC(=O)[C@H](Cc2c[nH]cn2)NC(=O)[C@H](C(C)C)NC(=O)[C@H](CC(C)C)NC(=O)[C@H](CCN)NC(=O)[C@@H](CC(C)C)NC(=O)[C@H](C)N(C)C(=O)[C@H](C(C)C)NC(=O)[C@H](Cc2ccc(-c3ccccc3)cc2)NC1=O [Example 2037] ({CH2CO}-FY(Carboxymethyl)DWL[Bip]V[NMeA][dL][Dab]LVHC[dDap][AEEA][Aun]-OH; thioether N-14)
3 | 7.73 | CCC(C)[C@@H]1NC(=O)[C@H](Cc2ccc(-c3ccccc3)cc2)NC(=O)[C@H](CC(C)C)NC(=O)[C@H](Cc2c[nH]c3ccccc23)NC(=O)[C@H](CC(=O)O)NC(=O)[C@H](Cc2ccc(O)cc2)NC(=O)[C@H](Cc2ccncc2)NC(=O)CSC[C@@H](C(=O)N[C@H](CCCN)C(=O)NCCOCCOCC(=O)NCCCCCCCCCCC(=O)O)NC(=O)[C@H](CO)NC(=O)[C@H](C(C)C)NC(=O)[C@H](CC2CCCCC2)NC(=O)[C@H](CCN)NC(=O)[C@@H](CC(C)C)NC(=O)[C@H](C)N(C)C1=O (stereo partly drawn) [Example 2086] ({CH2CO}-[4Pal]YDWL[Bip][Ile(3ξ)][NMeA][dL][Dab][Cha]VSC[dOrn][AEEA][Aun]-OH; thioether N-14)
4 | 7.97 | CC(C)C[C@@H]1NC(=O)[C@H](Cc2c[nH]c3ccccc23)NC(=O)[C@H](CC(=O)O)NC(=O)[C@H](Cc2ccc(C(=O)O)cc2)NC(=O)[C@H](Cc2ccc(OCC(=O)O)cc2)NC(=O)CSC[C@@H](C(=O)NCC(=O)N[C@@H](CCCCN)C(=O)NCC(=O)NCCCCCCCCCCC(=O)O)NC(=O)[C@H](CO)NC(=O)[C@H](C(C)C)NC(=O)[C@H](CC2CCCCC2)NC(=O)[C@H](CCN)NC(=O)[C@@H](CC(C)C)NC(=O)[C@H](C)N(C)C(=O)[C@H](C(C)C)NC(=O)[C@H](Cc2ccc(-c3ccccc3)cc2)NC1=O [Example 1031] ({CH2CO}-Y(Carboxymethyl)[Phe(4-COOH)]DWL[Bip]V[NMeA][dL][Dab][Cha]VSCGKG[Aun]-OH; thioether N-14)
5 | 7.57 | CC(C)C[C@H]1NC(=O)[C@H](C)N(C)C(=O)[C@H](CCCNC(N)=O)NC(=O)[C@H](Cc2ccc(-c3ccccc3)cc2)NC(=O)[C@H](Cc2ccc(C(=O)O)cc2)NC(=O)[C@H](Cc2cccc(C(F)(F)F)c2)NC(=O)[C@H](CC(=O)O)NC(=O)[C@H](Cc2ccc(OCC(=O)O)cc2)NC(=O)[C@H](CN2CCOCC2)NC(=O)CSC[C@@H](C(=O)N[C@@H](CCN)C(=O)NCCOCCOCC(=O)N[C@@H](CCC(=O)NCCOCCOCC(=O)NCCCCCCCCCCCCC(=O)O)C(=O)O)NC(=O)[C@H](CO)NC(=O)[C@H](C(C)(C)O)NC(=O)[C@H](CC2CCCCC2)NC(=O)[C@H](CCN)NC1=O [Example 1177] ({CH2CO}-[Ala(morpholin-4-yl)]Y(Carboxymethyl)D[Phe(3-CF3)][Phe(4-COOH)][Bip][Cit][NMeA][dL][Dab][Cha][Val(3-OH)]SC[Dab][AEEA][γGlu][AEEA]-{NH(CH2)12COOH}; thioether N-14)
6 | 7.70 | CC(C)C[C@@H]1NC(=O)[C@H](Cc2c[nH]c3ccccc23)NC(=O)[C@H](CC(=O)O)NC(=O)[C@H](Cc2ccc(C(=O)O)cc2)NC(=O)[C@H](Cc2ccc(OCC(=O)O)cc2)NC(=O)CSC[C@@H](C(=O)N[C@@H](CCN)C(=O)NCCCCCCCCCCC(=O)O)NC(=O)[C@H]([C@@H](C)O)NC(=O)[C@H](C(C)C)NC(=O)[C@H](CC2CCCCC2)NC(=O)[C@H](CCN)NC(=O)[C@@H](CC(C)C)NC(=O)[C@H](C)N(C)C(=O)[C@H](C(C)C)NC(=O)[C@H](Cc2ccc(-c3ccccc3)cc2)NC1=O [Example 1326] ({CH2CO}-Y(Carboxymethyl)[Phe(4-COOH)]DWL[Bip]V[NMeA][dL][Dab][Cha]VTC[Dab][Aun]-OH; thioether N-14)
7 | 7.12 | Cc1cccc(C[C@@H]2NC(=O)[C@H](CC(=O)O)NC(=O)[C@H](Cc3ccc(C(=O)O)cc3)NC(=O)[C@H](Cc3ccc(OCC(=O)O)cc3)NC(=O)CSC[C@@H](C(=O)NCC(=O)N[C@@H](CC(=O)O)C(=O)NCCOCCOCC(=O)N[C@@H](CC(=O)NCCOCCOCC(=O)NCCCCCCCCCCC(=O)O)C(=O)O)NC(=O)[C@H](CO)NC(=O)[C@H](C(C)C)NC(=O)[C@H](CC(C)C)NC(=O)[C@H](CC(N)=O)NC(=O)[C@@H](CC(C)C)NC(=O)[C@H](C)N(C)C(=O)[C@H](C(C)C)NC(=O)[C@H](Cc3ccc(-c4ccccc4)cc3)NC(=O)[C@H](CC(C)C)NC2=O)c1 [Example 1022] ({CH2CO}-Y(Carboxymethyl)[Phe(4-COOH)]D[Phe(3-Me)]L[Bip]V[NMeA][dL]NLVSCGD[AEEA][βAsp][AEEA][Aun]-OH; thioether N-14)

same assay, conditions: PE-labeled PD-L1-Ig 20 nM final, Jurkat-hPD-1 cells; read-out: Jurkat HPD1 PDL1 IC50

Row | pIC50 | Compound
8 | 8.18 | Cc1cccc(C[C@@H]2NC(=O)[C@H](CC(=O)O)NC(=O)[C@H](Cc3ccc(OCC(=O)O)cc3)NC(=O)[C@H]([C@@H](C)O)NC(=O)CSC[C@@H](C(=O)N[C@@H](CCN)C(=O)NCCOCCOCC(=O)NCCCCCCCCCCCC(=O)O)NC(=O)[C@@H](C)NC(=O)[C@H](C(C)C)NC(=O)[C@H](CC3CCCCC3)NC(=O)[C@H](CCN)NC(=O)[C@@H](CC(C)C)NC(=O)[C@H](C)N(C)C(=O)[C@H](Cc3ccc(OCC(=O)O)cc3)NC(=O)[C@H](Cc3ccc(-c4ccccc4)cc3)NC(=O)[C@H](Cc3ccc(OCC(=O)O)cc3)NC2=O)c1 [Example 2670] ({CH2CO}-TY(Carboxymethyl)D[Phe(3-Me)]Y(Carboxymethyl)[Bip]Y(Carboxymethyl)[NMeA][dL][Dab][Cha]V[dA]C[Dab][AEEA][12Ado]-OH; thioether N-14)
9 | 6.66 | CC(C)C[C@H]1NC(=O)[C@H](C)N(C)C(=O)[C@H](Cc2ccc(C(N)=O)cc2)NC(=O)[C@H](Cc2ccc(-c3ccccc3)cc2)NC(=O)[C@H](Cc2ccc(C(N)=O)cc2)NC(=O)[C@H](Cc2c[nH]c3ccccc23)NC(=O)[C@H](CC(=O)O)NC(=O)[C@H](Cc2ccc(OCC(=O)O)cc2)NC(=O)[C@H](C(C)O)NC(=O)CSC[C@@H](C(=O)N[C@@H](CCN)C(=O)NCCCCCCCCCCC(=O)O)NC(=O)[C@H](CO)NC(=O)[C@H](Cc2cnc[nH]2)NC(=O)[C@H](CC2CCCCC2)NC(=O)[C@H](CCN)NC1=O (stereo partly drawn) [Example 2429] ({CH2CO}-[Thr(3ξ)]Y(Carboxymethyl)DW[Phe(4-CONH2)][Bip][Phe(4-CONH2)][NMeA][dL][Dab][Cha]HSC[Dab][Aun]-OH; thioether N-14)
10 | 6.60 | Cc1cccc(C[C@@H]2NC(=O)[C@H](CC(=O)O)NC(=O)[C@H](Cc3ccc(OCC(=O)O)cc3)NC(=O)[C@H](Cc3ccncc3)NC(=O)CSC[C@@H](C(=O)N[C@@H](CCN)C(=O)NCCOCCOCC(=O)NCCOCCOCC(=O)NCCCCCCCCCCC(=O)O)NC(=O)[C@H](CCC(=O)O)NC(=O)[C@H](C(C)C)NC(=O)[C@H](CC3CCCCC3)NC(=O)[C@H](CCN)NC(=O)[C@@H](CC(C)C)NC(=O)[C@H](C)N(C)C(=O)[C@H](Cc3ccc(C(=O)O)cc3)NC(=O)[C@H](Cc3ccc(-c4ccccc4)cc3)NC(=O)[C@H](Cc3ccc(C(=O)O)cc3)NC2=O)c1 [Example 2501] ({CH2CO}-[4Pal]Y(Carboxymethyl)D[Phe(3-Me)][Phe(4-COOH)][Bip][Phe(4-COOH)][NMeA][dL][Dab][Cha]VEC[Dab][AEEA][AEEA][Aun]-OH; thioether N-14)
11 | 7.94 | Cc1cccc(C[C@@H]2NC(=O)[C@H](CC(=O)O)NC(=O)[C@H](Cc3ccc(OCC(=O)O)cc3)NC(=O)[C@H](C(C)O)NC(=O)CSC[C@@H](C(=O)N[C@@H](CCN)C(=O)NCCOCCOCC(=O)NCCCCCCCCCCC(=O)O)NC(=O)[C@H](CC(=O)O)NC(=O)[C@H](C(C)C)NC(=O)[C@H](CC3CCCCC3)NC(=O)[C@H](CCN)NC(=O)[C@@H](CC(C)C)NC(=O)[C@H](C)N(C)C(=O)[C@H](Cc3ccc(OCC(=O)O)cc3)NC(=O)[C@H](Cc3ccc(-c4ccccc4)cc3)NC(=O)[C@H](Cc3ccc(OCC(=O)O)cc3)NC2=O)c1 (stereo partly drawn) [Example 2558] ({CH2CO}-[Thr(3ξ)]Y(Carboxymethyl)D[Phe(3-Me)]Y(Carboxymethyl)[Bip]Y(Carboxymethyl)[NMeA][dL][Dab][Cha]VDC[Dab][AEEA][Aun]-OH; thioether N-14)
12 | 8.10 | Cc1cccc(C[C@@H]2NC(=O)[C@H](CC(=O)O)NC(=O)[C@H](Cc3ccc(OCC(=O)O)cc3)NC(=O)[C@H](CCN)NC(=O)CSC[C@@H](C(=O)N[C@@H](CCN)C(=O)NCCOCCOCC(=O)NCCOCCOCC(=O)NCCCCCCCCCCC(=O)O)NC(=O)[C@H](Cc3cnc[nH]3)NC(=O)[C@H](C(C)(C)O)NC(=O)[C@H](CC3CCCCC3)NC(=O)[C@H](CCN)NC(=O)[C@@H](CC(C)C)NC(=O)[C@H](C)N(C)C(=O)[C@H](Cc3ccc(OCC(=O)O)cc3)NC(=O)[C@H](Cc3ccc(-c4ccccc4)cc3)NC(=O)[C@H](Cc3ccc(OCC(=O)O)cc3)NC2=O)c1 [Example 2520] ({CH2CO}-[Dab]Y(Carboxymethyl)D[Phe(3-Me)]Y(Carboxymethyl)[Bip]Y(Carboxymethyl)[NMeA][dL][Dab][Cha][Val(3-OH)]HC[Dab][AEEA][AEEA][Aun]-OH; thioether N-14)
